Experimental data as given in patent US10815505B2, “Microbial oil extracted from stramenopiles” (priority 2009, dated 2020).
Several values for one entry are separate records, joined by “and”; a condition that tells them apart may be missing. Equal entries are not always repeated. Where two headings read alike, the source gives them in different places.

How the values were obtained:
[1] = tested on: T. aureum-derived Δ5 desaturase; assay type: cell-based, Thraustochytrium aureum; details: S. cerevisiae expressing TauΔ5des, (product × 100)/(substrate + product)
Procedure: In order to verify that the acquired gene was Δ5 desaturase, overexpression experiment was conducted using a budding yeast S. cerevisiae as a host. First, the acquired gene was incorporated at the EcoRI/XhoI site of a yeast vector pYES2/CT (Invitrogen) to construct an expression vectorpYΔ5des. The constructed expression vector pY5Δdes was then introduced into S. cerevisiae, and GC analysis was performed after extracting and methylating the transfectant fatty acids obtained by using the lithium acetate technique. A gas chromatograph GC-2014 (Shimadzu Corporation) was used for the GC analysis, which was performed under the following conditions. Column: HR-SS-10 (30 m×0.25 mm; Shinwa Chemical Industries Ltd.), column temperature: 150° C.→(5° C./min)→220° C. (10 min), carrier gas: He (1.3 mL/min). GC-17A and GCMS-QP-5000 (Shimadzu Corporation) were used for GC-MS analysis, which was performed using a DB-1 capillary column (0.25 mmi.d.×30 m, film thickness 0.25 μm; Agilent) under the following conditions: column temperature 160° C.→(4° C./min)→260° C., injector port temperature 250° C. For peaks that caused troubles in the analyses, the fatty acids were analyzed after picolinyl esterification, using the same apparatuses and columns under the temperature condition 240° C.→(2.5° C./min)→260° C. (15 min)→(2.5° C./min)→280° C.

[2] = tested on: Thraustochytrium aureum-derived Δ5 desaturase; assay: Fatty acid composition of Δ5 desaturase-introduced Aurantiochytrium sp. mh0186 (mhΔ5neo^r), GC analysis; assay type: cell-based; details: host mh0186; 0.1 mM ETA (to EPA) or DGLA (to AA) in medium
Procedure: The transformed clone obtained in Example 6, (3), v. was cultured for 3 days, and mhneo^r and mhΔ5neo^r were analyzed by GC analysis after extracting the fatty acid methyl ester. Separately, 0.1 mM ETA or DGLA, exogenous fatty acids used as a substrate by Δ5 desaturase, was added to medium for incorporation into Labyrinthula, and GC analysis was performed after extracting the fatty acids as in the overexpression experiment using yeast. A gas chromatograph GC-2014 (Shimadzu Corporation) was used for the GC analysis, which was performed under the following conditions. Column: HR-SS-10 (30 m×0.25 mm; Shinwa Chemical Industries Ltd.), column temperature: 150° C.→(5° C./min)→220° C. (10 min), carrier gas: He (1.3 mL/min).
ETA or DGLA used as a substrate by Δ5 desaturase was also added to medium at 0.1 mM for incorporation into Labyrinthula. As a result, the precursor substances converted into EPA and AA in Labyrinthula, and the content increased, as observed in the Δ5 desaturase expression experiment using yeast (Tables 9 and 10). […] This experiment was repeated in three or more confirmatory experiments to confirm reproducibility. All experiments produced the same results.

[3] = tested on: A. limacinum wild-type strain; assay: G418 resistance on PDA agar plate, wild-type strain; assay type: cell-based, Aurantiochytrium limacinum mh0186; details: 25° C., 2 days
Procedure: (§1) The transfectants were cultured in 0.5 mg/ml G418-containing GY liquid medium. The wild-type strain was cultured in GY liquid medium containing no G418. The culture fluids of these strains were spotted in 10-μl portions on PDA agar plate media containing G418 (0, 0.2, 0.5, 1, 2, 4 mg/ml), and growth on the agar plate media was observed after culturing the cells at 25° C. for 2 days. It was found as a result that the proliferation was inhibited at 0.2 mg/ml G418 in the wild-type strain, whereas the transfectants proliferated even in the presence of 4 mg/ml G418 (FIG. 13A). Further, there was no change in G418 resistance, and proliferation was observed even at a G418 concentration of 32 mg/ml in a similar experiment conducted with PDA agar plate media containing G418 (0, 2, 4, 8, 16, 32 mg/ml) after subculturing the transfectants five times in a GY liquid medium containing no G418 (FIG. 13B).

[4] = tested on: A. limacinum transfectants; assay: G418 resistance on PDA agar plate, ub-Neo^r transfectants; assay type: cell-based, Aurantiochytrium limacinum mh0186
Procedure: as §1

[5] = tested on: Saccharomyces cerevisiae (pYES2/CT, mock); assay: Mock (pYES2/CT) introduced yeast, GC analysis of fatty acids; assay type: cell-based; details: 100 × product/(product + substrate)
Procedure: By using a plasmid containing the full length of the P. pyriformis-derived Δ12 desaturase gene as a template, a PCR was performed with primers Pry-F (SEQ ID NO: 60 in the Sequence Listing) and Pyr-R (SEQ ID NO: 61 in the Sequence Listing), using a PrimeSTAR GC polymerase kit (Takara Bio). The PCR added a HindIII restriction enzyme site and an XbaI restriction enzyme site at the both ends. The amplified fragments were incorporated in a pGEM-T-Easy vector (Promega), and sequence analysis was performed. […] As a result, a Δ12 desaturase gene expression vector pYpΔ12Des was constructed. […] For peaks that caused troubles in the analyses, the fatty acids were analyzed after picolinyl esterification, using the same apparatuses and columns under the temperature condition 240° C.→(2.5° C./min)→260° C. […]
In order to verify that the Δ12 desaturase was encoded by the acquired gene, an expression vector was constructed, and an expression experiment was conducted using a budding yeast S. cerevisiae (Invitrogen) as a host. […] The conversion efficiency from oleic acid to linoleic acid was 23.5±1.23%, as calculated according to the following equation. […]

eicosatetraenoic acid [ETA]
Percentage of substrate converted (%) [1]: 32% | Percentage of substrate converted (%) ([1]; listed as C20:4n-3 Eicosatetraenoic acid (ETA)): 32.0% | Conversion efficiency of the precursor substance in Labyrinthula [2]: 75% and 75.2%

CCCCC/C=C\C/C=C\CCCCCCCC(=O)O [18:2^Δ9,12, linoleic acid]
Percentage of substrate converted (%) [1]: 0.0%

CN[C@@H]1[C@@H](O)[C@@H](O[C@@H]2[C@@H](O)[C@H](O[C@H]3O[C@H]([C@@H](C)O)[C@@H](O)[C@H](O)[C@H]3N)[C@@H](N)C[C@H]2N)OC[C@]1(C)O [G418]
G418 concentration at which proliferation was inhibited [3]: 0.2 mg/mL | G418 concentration at which proliferation was still observed ([4]; PDA agar plate, 25° C., 2 days, highest tested 4 mg/ml): 4 mg/mL | G418 concentration at which proliferation was still observed ([4]; after subculturing five times without G418, highest tested 32 mg/ml): 32 mg/mL

Eicosatrienoic acid [C20:3n-3 Eicosatrienoic acid]
Percentage of substrate converted (%) [1]: 0.0%

CCCCC/C=C\C/C=C\C/C=C\CCCCCCC(=O)O [DGLA, dihomo-γ-linolenic acid]
Percentage of substrate converted (%) [1]: 27% | Percentage of substrate converted (%) ([1]; listed as C20:3n-6 Dihomo-g-linolenic acid (DGLA)): 27.0% | Conversion efficiency of the precursor substance in Labyrinthula [2]: 63% and 62.9%

Eicosadienoic acid [C20:2n-6 Eicosadienoic acid]
Percentage of substrate converted (%) [1]: 0.0%

CC/C=C\C/C=C\C/C=C\CCCCCCCC(=O)O [18:3^Δ9,12,15, α-linolenic acid]
Percentage of substrate converted (%) [1]: 0.0%

CCCCCC/C=C\CCCCCCCC(=O)O [16:1^Δ9]
Conversion efficiency (%) [5]: 0%
